In patent publication US6291677A, “Compounds having activity as inhibitors of cytochrome P450RAI” (Allergan Sales, Inc., priority 2000, dated 2001):

Key:
skin of hairless mice = assay: topical skin irritation test in hairless mice; format: in vivo, female hairless mice (Crl:SKH1-hrBR); conditions: once daily days 1 through 5, mean±SD
Source text: Mice were housed individually throughout the dosing period.
Doses are disclosed as nmol/25 g.
The grading scale used is as follows:
Values can range from 0-9.
Values can range from 0-8.

RARβ = assay: chimeric receptor transactivation assay, RARβ; format: cell-based; conditions: unit assumed
Source text: (§1) Assays described below measure the ability of a compound to bind to, and/or activate various retinoid receptor subtypes. When in these assays a compound binds to a given receptor subtype and activates the transcription of a reporter gene through that subtype, then the compound is considered an agonist of that receptor subtype. […] In the below described assays the ability of the compounds to bind to RARα, RARβ, RARγ,RXRα, RXRβ and RXRγ receptors, and the ability or inability of the compounds to activate transcription of a reporter gene through these receptor subtypes can be tested.
(§2) The results obtained in this assay are expressed in EC50 numbers, as they are also in the chimeric receptor transactivation assay. The results of ligand binding assay are expressed in Kd numbers.

RARα = assay: chimeric receptor transactivation assay, RARα; format: cell-based; conditions: unit assumed
Source text: as §1, §2

RARγ = assay: chimeric receptor transactivation assay, RARγ; format: cell-based; conditions: unit assumed
Source text: as §1, §2

P450RAI-1 = biological target: T1, P450RAI-1 (Homo sapiens, UniProt O43174); assay: cell-based; conditions: intact HeLa, P450RAI-1 stably transfected, [3H]-RA, 3 hours at 37° C; read-out: P450RAI INHIBITION DATA INTACT HELA IC50
T1 sequence (O43174 1-497): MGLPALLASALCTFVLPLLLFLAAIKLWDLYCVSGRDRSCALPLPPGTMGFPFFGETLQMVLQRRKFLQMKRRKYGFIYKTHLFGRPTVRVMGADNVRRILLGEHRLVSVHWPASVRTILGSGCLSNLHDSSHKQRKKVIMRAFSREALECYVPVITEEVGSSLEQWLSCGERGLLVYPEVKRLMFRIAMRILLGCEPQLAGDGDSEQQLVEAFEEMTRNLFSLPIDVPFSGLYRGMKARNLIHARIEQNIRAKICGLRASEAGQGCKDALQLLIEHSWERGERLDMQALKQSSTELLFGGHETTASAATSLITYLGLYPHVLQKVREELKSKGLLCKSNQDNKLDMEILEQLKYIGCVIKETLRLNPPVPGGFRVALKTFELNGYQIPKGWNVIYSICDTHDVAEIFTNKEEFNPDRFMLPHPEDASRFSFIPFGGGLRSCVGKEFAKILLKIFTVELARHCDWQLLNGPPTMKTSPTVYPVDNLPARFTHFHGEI
Description: FIG. 1 is a schematic representation of the P450RAI cell based assay utilized to evaluate the ability of the compounds of the invention to inhibit the Cytochrome P450RAI enzyme.
P450RAI-1 Cell-Based Inhibitor Assay:
P450RAI-1 stably transfected HeLa cells are maintained in […] tissue culture dishes in Modified Eagle's Medium (MEM) containing 10% Fetal Bovine Serum (FBS) and 100 μg/ml hygromycin. Exponentially growing cells are harvested by incubating in trypsin. Cells are then washed with 1× Phosphate Buffered Saline (PBS) and plated in a 48-well plate at 5×10^5 cells in 0.2 ml MEM medium containing 10% FBS and 0.05 μCi [^3 H]-RA in the presence or absence of increasing concentrations of the test compounds. The compounds are diluted in 100% DMSO and then added in triplicate wells at either 10, 1 or 0.1 μM final concentration. As a positive control for RA metabolism inhibition, cells are also incubated with ketoconazole at 100, 10 and 1 μM. Cell are incubated for 3 hours at 37° C. […] The water soluble radioactivity is quantified using a β-scintillationcounter. IC50 values represent the concentration of inhibitor required to inhibit all-trans-RA metabolism by 50 percent and are derived manually from log-transformed data.

| IC50 (P450RAI-1) | Structure (SMILES) | Cutaneous Toxicity Score (Blackjack Score) (skin of hairless mice; 100 nmole) | Cutaneous Toxicity Score (Blackjack Score) (skin of hairless mice; 300 nmole) | Cutaneous Toxicity Score (Blackjack Score) (skin of hairless mice; 1000 nmole) | (EFFICACY) RAR β (RARβ) | (EFFICACY) RAR α (RARα) | (EFFICACY) RAR γ (RARγ) |
| --- | --- | --- | --- | --- | --- | --- | --- |
| – | CC1(C)CC2(CC2)Oc2c(C3CC3)cc(C#Cc3ccc(CC(=O)O)c(F)c3)cc21 [Compound 50, 4-[(8-Cyclopropyl-3,4-dihydro-4,4-dimethylspiro[2H-1-benzopyran-2,1'-cyclopropane]-6-yl)ethynyl]-2-fluoro-benzeneacetic acid] | 1 ± 0 | 3 ± 2 | 8 ± 2 | – | – | – |
| – | CC1(C)CC2(CC2)Oc2c(C3CC3)cc(C(=O)Oc3ccc(CC(=O)O)cc3)cc21 [Compound 58] | 0 ± 0 | 0 ± 0 | 0 ± 0 | – | – | – |
| – | Cc1cc(C#Cc2ccc(C(=O)O)cc2)ccc1C1(OC(C)C)CC1 [Compound 85, 4-[4-(1-Isopropoxycyclopropyl)-3-methyl-phenylethynyl]-benzoic acid] | – | – | – | 77% | 60% | 65% |
| 0.13 µM | CC1(C)CC(C)(C)c2cc(C#Cc3ccc(CC(=O)O)c(F)c3)ccc2O1 [Compound 32, [2-Fluoro-4-(2,2,4,4-tetramethyl-chroman-6-yl-ethynyl)phenyl]acetic acid] | – | – | – | – | – | – |
| – | CN(C1CC1)C1CCC(C)(C)c2cc(C#Cc3ccc(C(=O)O)c(F)c3)ccc21 (stereo not drawn) [Compound 13, 4-[5-(Cyclopropyl-methyl-amino)-8,8-dimethyl-5,6,7,8-tetrahydro-naphthalene-2-yl-ethynyl]-2-fluoro benzoic acid] | – | – | – | 6.6% | – | 9% |
| 10 µM | CC(C)N(C)C1CCC(C)(C)c2cc(C#Cc3ccc(C(=O)O)cc3)ccc21 (stereo not drawn) [Compound 26] | – | – | – | – | – | – |
| – | CCCN(CCC)C1(c2ccc(C#Cc3ccc(C(=O)O)cc3)cc2)CC1 [Compound 110, 4-[4-(1-Dipropylamino-cyclopropyl)-phenylethynyl]-benzoic acid] | – | – | – | 44% | – | 42% |
| – | CC1(C)CC2(CC2)Oc2ccc(C#Cc3ccc(C(=O)O)cc3)cc21 [Compound 40, Benzoic acid, 4-[(3,4-dihydro-4,4-dimethylspiro[2H-1-benzopyran-2,1'-cyclopropane]-6-yl)ethynyl]-] | – | – | – | 126% | 207% | 140% |
| – | CC1(C)CCC(=O)c2ccc(C#Cc3ccc(C(=O)O)c(F)c3)cc21 [Compound 10, 2-Fluoro-4-(8,8-dimethyl-5-oxo-5,6,7,8-tetrahydro-naphthalen-2yl-ethynyl)-benzoic acid] | – | – | – | 86% | 146% | 94% |
| – | CC1(C)CC(C)(C)c2cc(C#Cc3ccc(CC(=O)O)cc3)cc(C3CC3)c2O1 [Compound 36, [4-(8-Cyclopropyl-2,2,4,4-tetramethyl-chroman-6-yl-ethynyl)phenyl]acetic acid] | 1 ± 1 | – | 11 ± 0 | – | – | – |
| – | CC1(C)CC2(CC2)Oc2ccc(C#Cc3ccc(C(=O)O)c(F)c3)cc21 [Compound 44, 2-Fluoro-benzoic acid 4-[(3,4-dihydro-4,4-dimethylspiro[2H-1-benzopyran-2,1'-cyclopropane]-6-yl)ethynyl]-] | – | – | – | 100% | 138% | 116% |
| – | CC(C)OC1(c2ccc(C#Cc3ccc(C(=O)O)cc3)cc2)CC1 [Compound 73, 4-[4-(1-Isopropoxycyclopropyl)-phenylethynyl]-benzoic acid] | – | – | – | 39% | – | 24% |
| – | Cc1cc(C#Cc2ccc(C(=O)O)cc2)ccc1C1(OCc2ccccc2)CC1 [Compound 81, 4-[4-(1-Benzyloxycyclopropyl)-3-methyl-phenylethynyl]-benzoic acid] | – | – | – | 80% | – | 67% |
| – | CN(C1CC1)C1CCC(C)(C)c2cc(C#Cc3ccc(C(=O)O)cc3)ccc21 (stereo not drawn) [Compound 3, 4-[(5-Cyclopropyl-methyl-amino)-8,8-dimethyl-5,6,7,8-tetrahydro-naphthalene-2yl-ethynyl]-benzoic acid] | – | – | – | 54% | 28% | 52% |
| – | CC1(C)CCC(=O)c2ccc(C#Cc3ccc(CC(=O)O)cc3)cc21 [Compound 5, 4-[(8,8-Dimethyl-5-oxo-5,6,7,8-tetrahydro-naphthalene-2-yl-ethynyl)-phenyl]-acetic acid] | 0 | – | 6 ± 3 | 36% | – | – |
| – | CCCNC1(c2ccc(C#Cc3ccc(C(=O)O)cc3)cc2)CC1 [Compound 108, 4-[4-(1-Propylamino-cyclopropyl)-phenylethynyl]-benzoic acid] | – | – | – | 36% | 15% | 10% |
| – | O=C(O)c1ccc(C#Cc2ccc(C3(NCc4ccccc4)CC3)cc2)cc1 [Compound 112] | – | – | – | 37% | – | – |
| – | CN(C1CC1)C1CCC(C)(C)c2cc(C#Cc3ccc(CC(=O)O)c(F)c3)ccc21 (stereo not drawn) [Compound 18, [4-(5-(Cyclopropyl-methyl-amino)-8,8-dimethyl-5,6,7,8-tetrahydro-naphthalene-2-yl-ethynyl)-2-fluoro-phenyl]-acetic acid] | 0 ± 0 | 1 ± 1 | 10 ± 2 | – | – | – |
| – | CC1(C)CN(C2CC2)Cc2ccc(C#Cc3ccc(CC(=O)O)c(F)c3)cc21 [Compound 22, [4-(2-Cyclopropyl-4,4-dimethyl-1,2,34-tetrahydro-isoquinolin-6-yl-ethynyl)-2-fluoro-phenyl]-acetic acid] | 0 ± 0 | 0 ± 0 | 1 ± 1 | – | – | – |
| – | CCc1cc(C#Cc2ccc(C(=O)O)cc2)ccc1C1(OCc2ccccc2)CC1 [Compound 93, 4-[4-(1-Benzyloxycyclopropy)-3-ethyl-phenylethynyl]-benzoic acid] | – | – | – | 39% | 114% | 55% |
| – | CC1(C)CCC(=O)c2ccc(C#Cc3ccc(CC(=O)O)c(F)c3)cc21 [Compound 15, [2-Fluoro-4-(8,8-dimethyl-5-oxo-5,6,7,8-tetrahydro-naphthalene-2-yl-ethynyl)phenyl]-acetic acid] | 1 ± 1 | – | 5 ± 2 | – | – | – |
| – | COC1(c2ccc(C#Cc3ccc(C(=O)O)cc3)cc2)CC1 [Compound 69, 4-[4-(1-Methoxycyclopropyl)-phenylethynyl]-benzoic acid] | – | – | – | 50% | 10% | 31% |
| – | Cc1cc(C#Cc2ccc(C(=O)O)cc2)ccc1C1(OCC(C)(C)C)CC1 [Compound 89, 4-[4-[1-(2,2-Dimethylpropyloxy)-cyclopropyl]-3-methyl-phenylethynyl]-benzoic acid] | – | – | – | 50% | 20% | 46% |
| – | CC1(C)CC2(CC2)Oc2c(C3CC3)cc(C#Cc3ccc(CC(=O)O)cc3)cc21 [Compound 48, Benzeneacetic acid, 4-[(8-cyclopropyl-3,4-dihydro-4,4-dimethylspiro[2H-1-benzopyran-2,1'-cyclopropane]-6-yl)ethynyl]-] | 1 ± 1 | 3 ± 1 | 7 ± 2 | – | – | – |
| – | CC1(C)CCC(n2ccnc2)c2ccc(C#Cc3ccc(CC(=O)O)cc3)cc21 (stereo not drawn) [Compound 137, [4-(5-Imidazol-1-yl-8,8-dimethyl-5,6,7,8-tetrahydro-naphthalen-2-yl-ethynyl)-phenyl]-acetic acid] | 1 ± 1 | 1 ± 1 | 5 ± 2 | – | – | – |
